Data from US20260191863A1, “PYRROLOPYRIMIDINE COMPOSITIONS FOR TREATMENT OF ITK MEDIATED CONDITIONS” (ACLARIS THERAPEUTICS, INC., priority 2022, published 2026).
Like-named read-outs stand apart in the source and are kept apart here.

Assay: Phase 1 multiple ascending dose (MAD) study: pharmacokinetics
Format: in vivo, human
Conditions: for AUC(0-inf) / AUC(0-t) / Cmax / Tmax: human, plasma, oral; for AUC(0-inf): read-out: Geometric Mean AUCINF_obs; for AUC(0-t): read-out: Geometric Mean AUC_0-12; for Tmax: read-out: Geometric Mean Tmax
Source text: Secondary Endpoints—Compound I plasma concentrations and PK parameters: AUC0-tau, AUC0-inf, Ctrough, Cmax, tmax, Kel, t1/2, CLss/F, Vss/F, Rae.
Overall Design—This was a randomized, Investigator and participant-blind. Sponsor-unblinded, placebo-controlled study designed to evaluate the safety, tolerability, PK, and PD of Compound I in healthy participants. The study consisted of multiple cohorts assessing ascending doses of Compound I.
Approximately 60 participants were enrolled into 5 cohorts. At each dose level/cohort, a total of 10 participants were randomized to receive 2 weeks of oral doses of Compound I (n=8) or placebo (n=2). In Cohort 3, 20 participants were randomized to receive multiple oral doses of Compound I QD (n=8), Compound I TID (n=8), placebo QD (n=2), or placebo TID (n=2).
The study started with a planned dose of 5 mg twice daily (BID). Escalation to the next higher cohort was dependent on safety and PK data from all participants in the previous cohorts and was based on data from at least 6 participants up to at least 48 hours after the last dose. In no instance did the dose escalation steps exceed 3-fold the prior dose level.

[1] = 5 mg, Cohort 1, 5 mg BID, Day 1
[2] = 5 mg, Cohort 1, 5 mg BID, Day 7
[3] = 5 mg, Cohort 1, 5 mg BID, Day 15
[4] = 15 mg, Cohort 2, 15 mg BID, Day 1
[5] = 15 mg, Cohort 2, 15 mg BID, Day 7
[6] = 15 mg, Cohort 2, 15 mg BID, Day 15
[7] = 25 mg, Cohort 4, 25 mg BID, Day 1
[8] = 25 mg, Cohort 4, 25 mg BID, Day 7
[9] = 25 mg, Cohort 4, 25 mg BID, Day 15

Question: With `C=CC(=O)N1C[C@H](Nc2ncnc3[nH]cc([C@H]4CC4(F)F)c23)CC[C@@H]1C` [Compound I, 1-((2S,5R)-5-((5-((R)-2,2-difluorocyclopropyl)-7H-pyrrolo[2,3-d]pyrimidin-4-yl)amino)-2-methylpiperidin-1-yl)prop-2-en-1-one] as the compound, how does the “Geometric Mean Accumulation Ratio - AUCtau (Day 15/Day 1)” value (Cohort 1, 5 mg BID) read?
Answer: Its value is 1.2.

Question: What about the “Geometric Mean Accumulation Ratio - Cmax (Day 15/Day 1)” value (Cohort 1, 5 mg BID) of the same compound?
Answer: The value was 1.2.

Question: And the “Geometric Mean HL_Lambda_z” value (Cohort 1, 5 mg BID, Day 1)?
Answer: Its value is 1.51 h.

Question: And the “Geometric Mean HL_Lambda_z” value (Cohort 1, 5 mg BID, Day 7)?
Answer: Its value is 1.50 h.

Question: And the “Geometric Mean HL_Lambda_z” value (Cohort 1, 5 mg BID, Day 15)?
Answer: Its value is 1.65 h.

Question: What about the “Geometric Mean Accumulation Ratio - AUCtau (Day 15/Day 1)” value (Cohort 2, 15 mg BID) of the same compound?
Answer: The value was 1.6.

Question: And the “Geometric Mean Accumulation Ratio - Cmax (Day 15/Day 1)” value (Cohort 2, 15 mg BID)?
Answer: Its value is 1.4.

Question: What about the “Geometric Mean HL_Lambda_z” value (Cohort 2, 15 mg BID, Day 1) of the same compound?
Answer: The value was 1.53 h.

Question: And the “Geometric Mean HL_Lambda_z” value (Cohort 2, 15 mg BID, Day 7)?
Answer: Its value is 1.66 h.

Question: And the “Geometric Mean HL_Lambda_z” value (Cohort 2, 15 mg BID, Day 15)?
Answer: The value was 1.65 h.

Question: What about the “Geometric Mean Accumulation Ratio - AUCtau (Day 15/Day 1)” value (Cohort 3a, 30 mg QD) of the same compound?
Answer: The value was 1.3.

Question: What about the “Geometric Mean Accumulation Ratio - Cmax (Day 15/Day 1)” value (Cohort 3a, 30 mg QD) of the same compound?
Answer: The value was 1.1.

Question: What about the “Geometric Mean HL_Lambda_z” value (Cohort 3a, 30 mg QD, Day 1) of the same compound?
Answer: The value was 1.90 h.

Question: And the “Geometric Mean HL_Lambda_z” value (Cohort 3a, 30 mg QD, Day 7)?
Answer: The value was 1.87 h.

Question: What about the “Geometric Mean HL_Lambda_z” value (Cohort 3a, 30 mg QD, Day 15) of the same compound?
Answer: Its value is 1.93 h.

Question: And the “Geometric Mean Accumulation Ratio - AUCtau (Day 15/Day 1)” value (Cohort 4, 25 mg BID)?
Answer: Its value is 1.4.

Question: And the “Geometric Mean Accumulation Ratio - Cmax (Day 15/Day 1)” value (Cohort 4, 25 mg BID)?
Answer: The value was 1.3.

Question: What about the “Geometric Mean HL_Lambda_z” value (Cohort 4, 25 mg BID, Day 1) of the same compound?
Answer: The value was 1.70 h.

Question: And the “Geometric Mean HL_Lambda_z” value (Cohort 4, 25 mg BID, Day 7)?
Answer: The value was 1.91 h.

Question: And the “Geometric Mean HL_Lambda_z” value (Cohort 4, 25 mg BID, Day 15)?
Answer: Its value is 1.97 h.

Question: What about the “Geometric Mean Accumulation Ratio - AUCtau (Day 15/Day 1)” value (Cohort 5, 40 mg BID) of the same compound?
Answer: The value was 1.7.

Question: And the “Geometric Mean Accumulation Ratio - Cmax (Day 15/Day 1)” value (Cohort 5, 40 mg BID)?
Answer: The value was 1.4.

Question: And the “Geometric Mean HL_Lambda_z” value (Cohort 5, 40 mg BID, Day 1)?
Answer: Its value is 1.78 h.

Question: What about the “Geometric Mean HL_Lambda_z” value (Cohort 5, 40 mg BID, Day 7) of the same compound?
Answer: The value was 1.85 h.

Question: And the “Geometric Mean HL_Lambda_z” value (Cohort 5, 40 mg BID, Day 15)?
Answer: The value was 2.34 h.

Question: What about the “Dose proportionality of geometric mean exposure (Cmax and AUC)” value (MAD) of the same compound?
Answer: The value was “increases slightly greater than dose-proportional”.

Question: What about the “Plasma concentration dose dependence” value (MAD) of the same compound?
Answer: The value was “increased in a dose-dependent manner”.

Question: And the “Time to peak plasma concentration after dosing” value (MAD)?
Answer: Its value is ≤ 2 h.

Question: And the AUC(0-inf) [1]?
Answer: Its AUC(0-inf) is 27 ng·h/mL.

Question: What about the AUC(0-t) [1] of the same compound?
Answer: Its AUC(0-t) is 26 ng·h/mL.

Question: And the Cmax (5 mg, Cohort 1, 5 mg BID, Day 1, read-out: Geometric Mean Cmax)?
Answer: Its Cmax is 10.8 ng/mL.

Question: What about the Tmax [1] of the same compound?
Answer: Its Tmax is 36 min.

Question: What about the AUC(0-inf) [2] of the same compound?
Answer: Its AUC(0-inf) is 32 ng·h/mL.

Question: And the AUC(0-t) [2]?
Answer: The AUC(0-t) was 32 ng·h/mL.

Question: What about the Cmax (5 mg, Cohort 1, 5 mg BID, Day 7, read-out: Geometric Mean Cmax) of the same compound?
Answer: Its Cmax is 13 ng/mL.

Question: What about the Tmax [2] of the same compound?
Answer: Its Tmax is 46.2 min.

Question: What about the AUC(0-inf) [3] of the same compound?
Answer: The AUC(0-inf) was 32 ng·h/mL.

Question: What about the AUC(0-t) [3] of the same compound?
Answer: Its AUC(0-t) is 32 ng·h/mL.

Question: And the Cmax (5 mg, Cohort 1, 5 mg BID, Day 15, read-out: Geometric Mean Cmax)?
Answer: Its Cmax is 12.5 ng/mL.

Question: And the Tmax [3]?
Answer: The Tmax was 46.2 min.

Question: What about the AUC(0-inf) [4] of the same compound?
Answer: Its AUC(0-inf) is 71 ng·h/mL.

Question: And the AUC(0-t) [4]?
Answer: The AUC(0-t) was 71 ng·h/mL.

Question: What about the Cmax (15 mg, Cohort 2, 15 mg BID, Day 1, read-out: Geometric Mean Cmax) of the same compound?
Answer: Its Cmax is 28.8 ng/mL.

Question: And the Tmax [4]?
Answer: The Tmax was 48.6 min.

Question: What about the AUC(0-inf) [5] of the same compound?
Answer: The AUC(0-inf) was 110 ng·h/mL.

Question: And the AUC(0-t) [5]?
Answer: The AUC(0-t) was 109 ng·h/mL.

Question: What about the Cmax (15 mg, Cohort 2, 15 mg BID, Day 7, read-out: Geometric Mean Cmax) of the same compound?
Answer: The Cmax was 42.5 ng/mL.

Question: What about the Tmax [5] of the same compound?
Answer: The Tmax was 46.2 min.

Question: And the AUC(0-inf) [6]?
Answer: Its AUC(0-inf) is 111 ng·h/mL.

Question: What about the AUC(0-t) [6] of the same compound?
Answer: Its AUC(0-t) is 110 ng·h/mL.

Question: And the Cmax (15 mg, Cohort 2, 15 mg BID, Day 15, read-out: Geometric Mean Cmax)?
Answer: The Cmax was 38.9 ng/mL.

Question: What about the Tmax [6] of the same compound?
Answer: The Tmax was 57.6 min.

Question: And the Cmax (15 mg, Human 15 mg, read-out: Cmax)?
Answer: Its Cmax is 38.9 ng/mL.

Question: And the AUC(0-inf) [7]?
Answer: Its AUC(0-inf) is 175 ng·h/mL.

Question: And the AUC(0-t) [7]?
Answer: Its AUC(0-t) is 173 ng·h/mL.

Question: What about the Cmax (25 mg, Cohort 4, 25 mg BID, Day 1, read-out: Geometric Mean Cmax) of the same compound?
Answer: Its Cmax is 64.3 ng/mL.

Question: What about the Tmax [7] of the same compound?
Answer: Its Tmax is 50.4 min.

Question: And the AUC(0-inf) [8]?
Answer: Its AUC(0-inf) is 265 ng·h/mL.

Question: What about the AUC(0-t) [8] of the same compound?
Answer: Its AUC(0-t) is 260 ng·h/mL.

Question: What about the Cmax (25 mg, Cohort 4, 25 mg BID, Day 7, read-out: Geometric Mean Cmax) of the same compound?
Answer: Its Cmax is 89.6 ng/mL.

Question: What about the Tmax [8] of the same compound?
Answer: The Tmax was 48.6 min.

Question: And the AUC(0-inf) [9]?
Answer: The AUC(0-inf) was 245 ng·h/mL.

Question: And the AUC(0-t) [9]?
Answer: Its AUC(0-t) is 240 ng·h/mL.

Question: What about the Cmax (25 mg, Cohort 4, 25 mg BID, Day 15, read-out: Geometric Mean Cmax) of the same compound?
Answer: Its Cmax is 81.8 ng/mL.

Question: And the Tmax [9]?
Answer: The Tmax was 42.6 min.
